Reference: patent US20150307520A1, “NOVEL HETEROARYL AND HETEROCYCLE COMPOUNDS, COMPOSITIONS AND METHODS THEREOF” (HUTCHISON MEDIPHARMA LIMITED, priority 2012, published 2015)

Key:
Assay type in all cases: biochemical
p110β/p85α = p110β/p85α (Homo sapiens, UniProt P42338); assay: Transcreener KINASE Assay, kinase inhibition of p110β/p85α; conditions: for PI3Kβ IH % @ 1 uM: 1 uM test compound; for IC50: read-out: PI3Kβ IC50
Outline: (§1)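 ADP production was read by fluorescence polarization immunoassay (60 min detection step) after an 80 min room-temperature reaction of p110/p85α enzyme, compound in 2% DMSO, and PIP2/ATP solution (30 uM/10 uM as added) in HEPES buffer with MgCl2 and DTT. IC50s came from inhibition versus the DMSO control.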

p110δ/p85α = p110δ/p85α (Homo sapiens, UniProt O00329); assay: Transcreener KINASE Assay, kinase inhibition of p110δ/p85α; conditions: for PI3Kδ IH % @ 1 uM: 1 uM test compound; for IC50: read-out: PI3Kδ IC50
Outline: as §1

p110γ = p110γ (Homo sapiens, UniProt P48736); assay: Transcreener KINASE Assay, kinase inhibition of p110γ; conditions: for PI3Kγ IH % @ 1 uM: 1 uM test compound; for IC50: read-out: PI3Kγ IC50
Outline: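 Recombinant PI3K isoforms (p85α complexes or p110γ alone) reacted 80 min at room temperature, then ADP detection mix added for 60 min. ADP formation read by far-red competitive fluorescence polarization immunoassay; IC50 by curve fitting.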

Sequence of p110δ/p85α (O00329 whole entry): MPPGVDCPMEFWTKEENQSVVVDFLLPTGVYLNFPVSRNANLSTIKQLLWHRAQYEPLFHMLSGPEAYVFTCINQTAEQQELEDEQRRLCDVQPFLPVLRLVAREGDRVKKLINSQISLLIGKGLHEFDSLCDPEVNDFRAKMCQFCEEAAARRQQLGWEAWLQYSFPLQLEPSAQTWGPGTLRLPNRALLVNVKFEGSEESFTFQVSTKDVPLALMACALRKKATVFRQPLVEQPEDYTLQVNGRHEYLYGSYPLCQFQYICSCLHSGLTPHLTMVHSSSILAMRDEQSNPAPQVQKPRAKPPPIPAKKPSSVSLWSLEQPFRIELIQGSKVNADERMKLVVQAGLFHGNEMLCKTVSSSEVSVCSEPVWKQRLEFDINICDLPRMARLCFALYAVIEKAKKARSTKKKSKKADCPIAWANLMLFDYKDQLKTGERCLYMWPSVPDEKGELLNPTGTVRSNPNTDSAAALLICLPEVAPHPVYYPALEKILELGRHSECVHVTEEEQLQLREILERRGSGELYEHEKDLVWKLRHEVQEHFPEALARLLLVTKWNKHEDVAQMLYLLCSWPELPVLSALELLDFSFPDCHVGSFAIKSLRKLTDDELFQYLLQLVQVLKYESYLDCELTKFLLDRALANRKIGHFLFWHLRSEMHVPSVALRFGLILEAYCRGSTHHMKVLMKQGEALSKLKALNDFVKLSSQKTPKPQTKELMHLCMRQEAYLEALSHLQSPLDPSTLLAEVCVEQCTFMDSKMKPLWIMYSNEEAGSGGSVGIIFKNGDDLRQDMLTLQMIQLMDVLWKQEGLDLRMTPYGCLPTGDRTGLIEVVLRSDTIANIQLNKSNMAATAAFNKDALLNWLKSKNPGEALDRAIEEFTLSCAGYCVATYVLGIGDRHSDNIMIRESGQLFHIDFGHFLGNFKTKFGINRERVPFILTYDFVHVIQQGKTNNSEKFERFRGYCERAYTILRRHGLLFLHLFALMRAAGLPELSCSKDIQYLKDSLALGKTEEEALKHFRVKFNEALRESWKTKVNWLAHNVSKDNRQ
Sequence of p110δ/p85α (P27986 whole entry partner): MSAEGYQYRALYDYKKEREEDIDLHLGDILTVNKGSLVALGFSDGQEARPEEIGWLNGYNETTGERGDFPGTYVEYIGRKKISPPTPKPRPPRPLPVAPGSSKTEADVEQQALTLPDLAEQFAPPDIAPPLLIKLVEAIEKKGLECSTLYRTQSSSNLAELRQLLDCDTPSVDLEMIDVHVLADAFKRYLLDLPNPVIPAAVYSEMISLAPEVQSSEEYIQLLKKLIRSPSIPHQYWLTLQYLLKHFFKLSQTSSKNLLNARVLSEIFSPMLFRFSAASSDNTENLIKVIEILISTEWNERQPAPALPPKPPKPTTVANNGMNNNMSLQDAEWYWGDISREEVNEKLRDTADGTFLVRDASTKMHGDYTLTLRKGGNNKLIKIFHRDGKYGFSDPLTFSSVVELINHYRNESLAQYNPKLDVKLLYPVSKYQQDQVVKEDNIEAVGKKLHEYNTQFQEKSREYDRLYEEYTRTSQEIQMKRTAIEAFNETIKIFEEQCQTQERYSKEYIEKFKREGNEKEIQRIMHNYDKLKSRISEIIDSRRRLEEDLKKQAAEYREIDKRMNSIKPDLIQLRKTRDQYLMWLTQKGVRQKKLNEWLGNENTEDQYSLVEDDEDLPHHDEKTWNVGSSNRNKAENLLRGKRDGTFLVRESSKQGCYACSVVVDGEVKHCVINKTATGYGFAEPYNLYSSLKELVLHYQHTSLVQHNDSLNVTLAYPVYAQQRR
Sequence of p110γ (P48736 whole entry, canonical isoform): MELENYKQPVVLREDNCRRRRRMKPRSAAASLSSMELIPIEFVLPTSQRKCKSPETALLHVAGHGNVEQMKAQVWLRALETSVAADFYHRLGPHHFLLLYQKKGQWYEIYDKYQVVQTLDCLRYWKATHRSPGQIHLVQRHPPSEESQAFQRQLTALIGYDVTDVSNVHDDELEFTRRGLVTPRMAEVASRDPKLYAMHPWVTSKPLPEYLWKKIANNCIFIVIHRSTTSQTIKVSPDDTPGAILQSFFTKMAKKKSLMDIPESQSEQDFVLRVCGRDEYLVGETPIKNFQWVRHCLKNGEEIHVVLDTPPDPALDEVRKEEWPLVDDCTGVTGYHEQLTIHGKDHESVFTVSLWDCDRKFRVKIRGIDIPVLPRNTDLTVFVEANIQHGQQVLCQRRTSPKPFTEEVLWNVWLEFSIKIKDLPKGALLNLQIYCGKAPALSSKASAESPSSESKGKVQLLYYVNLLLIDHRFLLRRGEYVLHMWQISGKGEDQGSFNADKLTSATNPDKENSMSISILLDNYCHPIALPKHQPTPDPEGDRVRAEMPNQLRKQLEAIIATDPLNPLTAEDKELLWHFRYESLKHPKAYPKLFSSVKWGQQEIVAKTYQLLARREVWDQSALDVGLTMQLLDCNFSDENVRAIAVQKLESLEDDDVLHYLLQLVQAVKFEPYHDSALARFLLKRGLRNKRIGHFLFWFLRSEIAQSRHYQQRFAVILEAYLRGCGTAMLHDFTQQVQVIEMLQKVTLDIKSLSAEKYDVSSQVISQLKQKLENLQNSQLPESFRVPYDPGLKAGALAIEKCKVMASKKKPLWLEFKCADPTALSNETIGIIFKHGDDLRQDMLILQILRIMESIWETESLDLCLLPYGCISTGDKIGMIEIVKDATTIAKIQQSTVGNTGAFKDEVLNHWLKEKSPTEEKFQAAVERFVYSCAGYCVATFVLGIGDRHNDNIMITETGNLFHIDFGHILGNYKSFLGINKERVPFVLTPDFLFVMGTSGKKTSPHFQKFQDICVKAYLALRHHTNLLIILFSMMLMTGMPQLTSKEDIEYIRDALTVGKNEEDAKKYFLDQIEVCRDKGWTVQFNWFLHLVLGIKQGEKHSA
Sequence of p110β/p85α (P42338 whole entry): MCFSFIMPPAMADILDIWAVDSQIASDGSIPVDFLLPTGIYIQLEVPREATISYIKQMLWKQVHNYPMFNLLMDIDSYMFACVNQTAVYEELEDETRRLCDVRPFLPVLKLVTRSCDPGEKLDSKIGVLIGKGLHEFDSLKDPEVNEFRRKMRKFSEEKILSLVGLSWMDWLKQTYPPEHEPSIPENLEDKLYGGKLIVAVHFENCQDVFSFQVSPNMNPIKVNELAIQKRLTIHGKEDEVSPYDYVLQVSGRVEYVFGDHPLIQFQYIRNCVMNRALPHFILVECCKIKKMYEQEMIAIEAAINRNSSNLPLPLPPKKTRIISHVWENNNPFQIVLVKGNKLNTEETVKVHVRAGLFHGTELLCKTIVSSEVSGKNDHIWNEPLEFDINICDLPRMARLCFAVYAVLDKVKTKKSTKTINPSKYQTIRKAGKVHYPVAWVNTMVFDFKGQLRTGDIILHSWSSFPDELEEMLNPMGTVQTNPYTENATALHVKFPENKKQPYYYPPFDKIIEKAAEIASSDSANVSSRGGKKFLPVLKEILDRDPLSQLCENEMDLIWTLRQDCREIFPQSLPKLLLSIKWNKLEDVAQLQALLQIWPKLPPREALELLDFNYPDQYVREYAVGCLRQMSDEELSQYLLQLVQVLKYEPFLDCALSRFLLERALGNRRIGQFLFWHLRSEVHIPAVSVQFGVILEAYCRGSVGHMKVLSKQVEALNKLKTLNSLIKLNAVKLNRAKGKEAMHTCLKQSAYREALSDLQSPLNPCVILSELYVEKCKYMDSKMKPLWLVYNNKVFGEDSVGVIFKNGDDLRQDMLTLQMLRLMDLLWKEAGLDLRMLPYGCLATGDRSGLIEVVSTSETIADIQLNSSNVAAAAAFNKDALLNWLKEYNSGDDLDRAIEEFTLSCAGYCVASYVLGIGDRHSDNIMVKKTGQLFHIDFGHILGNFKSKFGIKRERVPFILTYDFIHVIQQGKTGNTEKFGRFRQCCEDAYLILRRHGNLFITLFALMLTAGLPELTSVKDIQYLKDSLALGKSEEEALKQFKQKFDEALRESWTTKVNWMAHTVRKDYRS
Sequence of p110β/p85α (P27986 2-724 partner): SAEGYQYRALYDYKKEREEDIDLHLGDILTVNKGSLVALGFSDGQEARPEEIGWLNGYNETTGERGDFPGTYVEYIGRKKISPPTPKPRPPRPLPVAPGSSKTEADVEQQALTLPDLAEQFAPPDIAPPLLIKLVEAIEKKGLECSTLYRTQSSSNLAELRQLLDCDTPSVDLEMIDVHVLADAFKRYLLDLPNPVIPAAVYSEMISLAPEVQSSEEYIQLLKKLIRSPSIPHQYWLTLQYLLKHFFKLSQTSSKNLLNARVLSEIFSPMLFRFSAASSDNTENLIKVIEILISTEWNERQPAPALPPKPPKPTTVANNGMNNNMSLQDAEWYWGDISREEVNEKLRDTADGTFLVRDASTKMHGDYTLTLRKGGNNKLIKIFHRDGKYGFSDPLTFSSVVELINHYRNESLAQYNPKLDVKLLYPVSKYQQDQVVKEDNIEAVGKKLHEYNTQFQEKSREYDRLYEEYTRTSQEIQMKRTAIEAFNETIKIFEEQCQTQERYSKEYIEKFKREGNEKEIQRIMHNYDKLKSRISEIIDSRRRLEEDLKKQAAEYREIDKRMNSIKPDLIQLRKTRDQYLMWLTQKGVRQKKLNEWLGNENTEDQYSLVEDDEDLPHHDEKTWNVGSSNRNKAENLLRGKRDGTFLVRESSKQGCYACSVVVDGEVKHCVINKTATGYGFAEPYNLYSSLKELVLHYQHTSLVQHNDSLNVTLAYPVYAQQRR

Structure (SMILES)	PI3Kβ IH % @ 1 uM (p110β/p85α) [%]	IC50 (p110β/p85α) [nM]	PI3Kδ IH % @ 1 uM (p110δ/p85α) [%]	IC50 (p110δ/p85α) [nM]	PI3Kγ IH % @ 1 uM (p110γ) [%]	IC50 (p110γ) [nM]
CC(=O)c1c[nH]c2ncnc(N[C@H](C)c3cn4ccc(F)c4c(=O)n3-c3ccccc3)c12 [Compound 405, (R)-3-(1-((5-acetyl-7H-pyrrolo[2,3-d]pyrimidin-4-yl)amino)ethyl)-8-fluoro-2-phenylpyrrolo[1,2-a]pyrazin-1(2H)-one]	86.5	332	>100	3	92.3	2
C[C@H]1CN(c2nc(N)ncc2C#N)C1c1nn2ccc(F)c2c(=O)n1-c1ccccc1 (stereo partly shown) [Compound 430]	28.1	–	93.9	13	87.3	52
C[C@H]1CN(c2nc(N)ncc2C#N)C1c1nn2ccc(Cl)c2c(=O)n1-c1ccc(F)cc1 (stereo partly shown) [Compound 432]	43.2	–	81.3	160	89.0	9
CC(=O)c1cnc(N)nc1NC(C)c1cn2ccc(Cl)c2c(=O)n1-c1cccc(F)c1 (stereo not shown) [Compound 435]	91.2	14	99.7	3	83.7	–
Cc1nc(N)nc(N2C[C@H](C)C2c2nn3ccc(Cl)c3c(=O)n2-c2ccccc2)c1C#N (stereo partly shown) [Compound 437]	97.1	27	96.3	1	91.3	2
Cc1nc(N)nc(N2C[C@H](C)C2c2nn3ccc(Cl)c3c(=O)n2-c2ccc(F)cc2)c1C#N (stereo partly shown) [Compound 439]	93.0	22	98.1	2	92.4	3
Cc1nc(N)nc(N2CC[C@H]2c2nn3ccc(Cl)c3c(=O)n2-c2ccc(F)cc2)c1C#N [Compound 442]	76.1	–	94.2	12	94.6	1
CC(=O)c1c[nH]c2ncnc(N3CC(=O)C[C@H]3c3nn4ccc(F)c4c(=O)n3-c3ccccc3)c12 [Compound 445]	22.3	–	77.5	240	4.3	–
C[C@H]1CN(c2nc(N)ncc2Cl)[C@@H]1c1nn2ccc(Cl)c2c(=O)n1-c1ccccc1 [Compound 465]	45.0	–	>100	8	94.1	23
C[C@H]1CN(c2ncnc3[nH]cc(C#N)c23)[C@@H]1c1nn2ccc(Cl)c2c(=O)n1-c1ccc(F)cc1 [Compound 468]	74.0	311	>100	20	96.6	–
Cc1nc(N)nc(N2C[C@H](C)[C@H]2c2nn3ccc(Cl)c3c(=O)n2-c2ccccc2)n1 [Compound 469]	47.1	–	>100	19	90.5	51
CC(=O)c1cnc(N)nc1N1CC[C@@H]1c1nn2ccc(Cl)c2c(=O)n1-c1ccccc1 [Compound 470]	4.9	–	27.8	–	36.6	–
C[C@H]1CN(c2ncnc3[nH]cc(C#N)c23)[C@@H]1c1nn2ccc(Cl)c2c(=O)n1-c1ccccn1 [Compound 476]	78.1	79	95.9	1	89.5	24
Cc1nc(N)nc(N2C[C@H](C)[C@H]2c2nn3ccc(Cl)c3c(=O)n2-c2ccccn2)c1C#N [Compound 478]	96.4	32	>100	1	>100	3
N#Cc1c(N)nc(N)nc1N1CCC1c1nn2ccc(Cl)c2c(=O)n1-c1ccccc1 (stereo not shown) [Compound 482]	91.9	266	>100	1	>100	7

More lines, now with the values ahead:

PI3Kβ IH % @ 1 uM (p110β/p85α) [%]	IC50 (p110β/p85α) [nM]	PI3Kδ IH % @ 1 uM (p110δ/p85α) [%]	IC50 (p110δ/p85α) [nM]	PI3Kγ IH % @ 1 uM (p110γ) [%]	IC50 (p110γ) [nM]	Structure (SMILES)
7.7	–	90.0	73	35.2	–	CC(=O)c1c[nH]c2ncnc(N[C@@H](C)c3cn4ccc(F)c4c(=O)n3-c3ccccc3)c12 [Compound 406, (S)-3-(1-((5-acetyl-7H-pyrrolo[2,3-d]pyrimidin-4-yl)amino)ethyl)-8-fluoro-2-phenylpyrrolo[1,2-a]pyrazin-1(2H)-one]
79.3	273	91.2	23	91.4	6	CC(=O)c1cnc(N)nc1N1C[C@H](C)C1c1nn2ccc(F)c2c(=O)n1-c1ccc(F)cc1 (stereo partly shown) [Compound 438]
20.3	–	95.2	11	95.8	17	CC(=O)c1cnc(N)nc1N1CC[C@H]1c1nn2ccc(Cl)c2c(=O)n1-c1cccc(F)c1 [Compound 440]
56.2	–	95.5	2	97.7	14	Cc1nc(N)nc(N2CC[C@H]2c2nn3ccc(Cl)c3c(=O)n2-c2cccc(F)c2)c1C#N [Compound 441]
20.1	–	85.8	319	40.0	–	CC(=O)c1cnc(N)nc1N1CC(=O)C[C@H]1c1nn2ccc(F)c2c(=O)n1-c1ccccc1 [Compound 446]
95.8	22	99.5	0.4	>100	4	CC(=O)c1cnc(N)nc1N[C@@H](C)c1cc2ncc(Cl)n2c(=O)n1-c1ccccc1 [Compound 447, (S)-7-(1-((5-acetyl-2-aminopyrimidin-4-yl)amino)ethyl)-3-chloro-6-phenylimidazo[1,2-c]pyrimidin-5(6H)-one]
89.6	50	>100	4	>100	5	Cc1nc(N)nc(N2C[C@H](C)[C@H]2c2nn3ccc(F)c3c(=O)n2-c2ccc(F)cc2)c1C#N [Compound 463]
33.0	–	>100	5	80.6	138	C[C@H]1CN(c2nc(N)ncc2Cl)[C@@H]1c1nn2ccc(F)c2c(=O)n1-c1ccccc1 [Compound 464]
45.4	–	>100	20	93.9	48	CC1(C)CN(c2nc(N)ncc2Cl)C1c1nn2ccc(Cl)c2c(=O)n1-c1ccccc1 (stereo not shown) [Compound 466]
48.3	–	99.3	7	98.2	9	CC(=O)c1cnc(N)nc1N1CCC1c1nn2ccc(Cl)c2c(=O)n1-c1ccccn1 (stereo not shown) [Compound 474]
31.7	–	>100	58	76.1	351	C[C@H]1CN(c2nc(N)ncc2C#N)[C@@H]1c1nn2ccc(Cl)c2c(=O)n1-c1ccccn1 [Compound 477]
20.1	–	91.6	10	94.7	120	CC(=O)c1cnc(N)nc1N1CC[C@H]1c1nn2ccc(Cl)c2c(=O)n1-c1cccc(C)n1 [Compound 479]
